The conditions of the assay: biotin tag reacted with fluorescently-labelled avidin. The procedure: In a separate experiment, two synthetic peptides were produced, and covalently attached to a biotin molecule. The sequences were:
The synthetic peptides were assessed for translocation by reacting the biotin tag with fluorescently-labelled avidin.

As for “Biotin-spacer-TPKKAKKPAAAAGASSAKSP-amide [SEQ ID NO. 11]”, the Translocation result is reported as “Translocation was observed”.

Turning to “Biotin-spacer-TPKKASSPAAAAGAKKAKSP-amide [SEQ ID NO. 10]”, the Translocation entry is listed as “no translocation was observed”.

The values above are taken from patent US20040110928A1, “Peptide conjugates for drug delivery” (priority 2000, published 2004).
